Test [1] concerns the target T1, IrtABΔSID (SID-truncated IrtAB) (Mycobacterium tuberculosis, UniProt P9WQJ7+P9WQJ9).
T1 construct: gene irtA

Test [2] concerns the target T1, IrtABΔSID (SID-truncated IrtAB). This is another data set of the same source.

Structures are written as SMILES.

Turning to `Nc1ncnc2c1ncn2[C@@H]1O[C@H](COP(=O)(O)OP(=O)(O)O)[C@@H](O)[C@H]1O` [ADP], the cryo-EM structure result in test [1] was “we also solved the structure of IrtABΔSID in complex with ADP”. `Nc1ncnc2c1ncn2[C@@H]1O[C@H](COP(=O)(O)OP(=O)(O)OP(=O)(O)O)[C@@H](O)[C@H]1O` [ATP]: the “ATPase activity, phosphate release (MAK-113)” value in test [2] is reported as “ATPase activity of IrtABΔSID is comparable to that of the wild-type (WT) protein”.

(Values after PMC10246721, “Cryo-EM structures for the Mycobacterium tuberculosis iron-loaded siderophore transporter IrtAB” (Protein & Cell, 2022).)
